Results taken from patent US9724347B2, “1-pyrazolyl-3-(4-((2-anilinopyrimidin-4-yl)oxy)napththalen-1-yl) ureas as P38 MAP knase inhibitors” (Respivert Ltd., priority 2011, dated 2017).

Columns and labels:
[1] = test system: ICAM-1 expression in BEAS2B cells; assay: Poly I:C-induced ICAM-1 expression in BEAS2B cells; assay type: cell-based, human; details: Homo sapiens, BEAS-2B, read-out: PolyIC/ICAM1 IC50 (BEAS2B)
Protocol: Poly I:C was used in these studies as a simple, RNA virus mimic. Poly I:C-Oligofectamine mixture (1 μg/mL Poly I:C, ±2% Oligofectamine, 25 μL; Invivogen Ltd., San Diego, Calif., and Invitrogen, Carlsbad, Calif., respectively) was transfected into BEAS2B cells (human bronchial epithelial cells, ATCC). Cells were pre-incubated with final concentrations of test compounds for 2 hr and the level of ICAM-1 expression on the cell surface was determined by cell-based ELISA. At a time point 18 hr after poly I:C transfection, cells were fixed with 4% formaldehyde in PBS (100 μL) and then endogenous peroxidase was quenched by the addition of washing buffer (100 μL, 0.05% Tween in PBS: PBS-Tween) containing 0.1% sodium azide and 1% hydrogen peroxide. Cells were washed with wash-buffer (3×200 μL). and after blocking the wells with 5% milk in PBS-Tween (100 μL) for 1 hr, the cells were incubated with anti-human ICAM-1 antibody (50 μL; Cell Signaling Technology, Danvers, Mass.) in 1% BSA PBS overnight at 4° C.
The cells were washed with PBS-Tween (3×200 μL) and incubated with the secondary antibody (100 μL; HRP-conjugated anti-rabbit IgG, Dako Ltd., Glostrup, Denmark). The cells were then incubated with of substrate (50 μL) for 2-20 min, followed by the addition of stop solution (50 μL, 1N H2SO4). The ICAM-1 signal was detected by reading […] the absorbance at 450 nm against a reference wavelength of 655 nm using a spectrophotometer. The cells were then washed with PBS-Tween (3×200 μL) and total cell numbers in each well were determined by reading absorbance at 595 nm after Crystal Violet staining (50 μL of a 2% solution in PBS) and elution by 1% SDS solution (100 μL) in distilled water. The measured OD 450-655 readings were corrected for cell number by dividing with the OD595 reading in each well. The inhibition of ICAM-1 expression was calculated at each concentration of test compound by comparison with vehicle control.

p38MAPKγ (MAPK12) = p38MAPKγ (MAPK12) (Homo sapiens (Human), UniProt P53778); assay: p38 MAPKγ enzyme inhibition (FRET, Z-LYTE); assay type: biochemical
Protocol: The enzyme inhibitory activities of compounds disclosed herein were determined by FRET using synthetic peptides labelled with both donor and acceptor fluorophores (Z-LYTE, Invitrogen Ltd., Paisley, UK). […] Development reagent (protease, 5 μL) was added for 1 hr prior to detection in a fluorescence microplate reader (Varioskan® Flash, Thermo Scientific). In all cases, the site-specific protease cleaves non-phosphorylated peptide only and eliminates the FRET signal. Phosphorylation levels of each reaction were calculated using the ratio of coumarin emission (donor) over fluorescein emission (acceptor), for which low ratios indicate high phosphorylation and high ratios indicate low phosphorylation levels.

d-U937 cells = assay: Cell viability: MTT assay; assay type: cell-based, human; details: 1 μg/mL
Protocol: Differentiated U937 cells were pre-incubated with each test compound (final concentration 1 μg/mL or 10 μg/mL in 200 μL media indicated below) under two protocols: the first for 4 hr in 5% FCS RPMI1640 media and the second in 10% FCS RPMI1640 media for 24 h. The supernatant was replaced with new media (200 μL) and MTT stock solution (10 μL, 5 mg/mL) was added to each well. After incubation for 1 hr the media were removed, DMSO (200 μL) was added to each well and the plates were shaken lightly for 1 hr prior to reading the absorbance at 550 nm. The percentage loss of cell viability was calculated for each well relative to vehicle (0.5% DMSO) treatment. Consequently an apparent increase in cell viability for drug treatment relative to vehicle is tabulated as a negative percentage.

GSK 3α enzyme isoform = GSK 3α enzyme isoform (Homo sapiens (Human), UniProt P49840); assay: GSK 3α enzyme inhibition (FRET, Z-LYTE); assay type: biochemical; details: read-out: IC50 Values for Enzyme Inhibition GSK3α
Protocol: The enzyme inhibitory activities of compounds disclosed herein were determined by FRET using synthetic peptides labelled with both donor and acceptor fluorophores (Z-LYTE, Invitrogen Ltd., Paisley, UK).
The inhibitory activities of test compounds against the GSK 3α enzyme isoform (Invitrogen), were evaluated by determining the level of activation/phosphorylation of the target peptide.
The GSK3-α protein (500 ng/mL, 2.5 μL) was mixed with the test compound (2.5 μL at either 4 μg/mL, 0.4 μg/mL, 0.04 μg/mL, or 0.004 μg/mL) for 2 hr at RT. The FRET peptide (8 μM, 2.5 μL), which is a phosphorylation target for GSK3α, and ATP (40 μM, 2.5 μL) were then added to the enzyme/compound mixture and the resulting mixture incubated for 1 hr. Development reagent (protease, 5 μL) was added for 1 hr prior to detection in a fluorescence microplate reader (Varioskan® Flash, ThermoFisher Scientific).
In all cases, the site-specific protease cleaves non-phosphorylated peptide only and eliminates the FRET signal. Phosphorylation levels of each reaction were calculated using the ratio of coumarin emission (donor) over fluorescein emission (acceptor), for which low ratios indicate high phosphorylation and high ratios indicate low phosphorylation levels.

[2] = target: p38 MAPKα isoform (MAPK14) (Homo sapiens (Human), UniProt Q16539); assay: p38 MAPKα enzyme inhibition (FRET, Z-LYTE); assay type: biochemical
Protocol: The enzyme inhibitory activities of compounds disclosed herein were determined by FRET using synthetic peptides labelled with both donor and acceptor fluorophores (Z-LYTE, Invitrogen Ltd., Paisley, UK). The inhibitory activities of test compounds against the p38 MAPKα isoform (MAPK14: Invitrogen), were evaluated indirectly by determining the level of activation/phosphorylation of the down-stream molecule, MAPKAP-K2. […] The mixture was incubated for 1 hr at RT. Development reagent (protease, 5 μL) was added for 1 hr prior to detection in a fluorescence microplate reader (Varioskan® Flash, ThermoFisher Scientific). In all cases, the site-specific protease cleaves non-phosphorylated peptide only and eliminates the FRET signal. Phosphorylation levels of each reaction were calculated using the ratio of coumarin emission (donor) over fluorescein emission (acceptor), for which low ratios indicate high phosphorylation and high ratios indicate low phosphorylation levels.

GSK 3α enzyme isoform, sequence (P49840 whole entry, canonical isoform): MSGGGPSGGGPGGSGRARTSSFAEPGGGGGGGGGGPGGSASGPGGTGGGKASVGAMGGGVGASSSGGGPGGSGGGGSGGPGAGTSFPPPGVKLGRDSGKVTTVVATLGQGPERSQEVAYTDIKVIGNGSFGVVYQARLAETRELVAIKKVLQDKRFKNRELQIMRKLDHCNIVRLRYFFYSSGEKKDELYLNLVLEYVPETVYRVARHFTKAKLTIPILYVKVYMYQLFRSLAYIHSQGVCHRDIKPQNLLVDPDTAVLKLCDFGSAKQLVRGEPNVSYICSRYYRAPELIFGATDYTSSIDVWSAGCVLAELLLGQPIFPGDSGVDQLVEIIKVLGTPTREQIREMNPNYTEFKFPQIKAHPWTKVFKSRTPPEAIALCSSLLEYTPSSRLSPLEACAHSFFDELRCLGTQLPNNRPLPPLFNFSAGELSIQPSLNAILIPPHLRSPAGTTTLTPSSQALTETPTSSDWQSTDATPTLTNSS
p38MAPKγ (MAPK12), sequence (P53778 whole entry): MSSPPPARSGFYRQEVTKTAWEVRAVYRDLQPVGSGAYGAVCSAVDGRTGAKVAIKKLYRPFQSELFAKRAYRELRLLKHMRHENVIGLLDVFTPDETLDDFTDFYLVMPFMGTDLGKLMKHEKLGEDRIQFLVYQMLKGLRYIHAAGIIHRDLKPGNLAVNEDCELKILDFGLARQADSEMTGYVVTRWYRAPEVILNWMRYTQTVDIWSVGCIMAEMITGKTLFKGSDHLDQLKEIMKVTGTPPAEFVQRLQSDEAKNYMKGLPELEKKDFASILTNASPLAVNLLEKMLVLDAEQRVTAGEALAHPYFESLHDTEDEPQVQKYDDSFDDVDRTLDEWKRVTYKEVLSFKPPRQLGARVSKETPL
p38 MAPKα isoform (MAPK14), sequence (Q16539 whole entry, canonical isoform): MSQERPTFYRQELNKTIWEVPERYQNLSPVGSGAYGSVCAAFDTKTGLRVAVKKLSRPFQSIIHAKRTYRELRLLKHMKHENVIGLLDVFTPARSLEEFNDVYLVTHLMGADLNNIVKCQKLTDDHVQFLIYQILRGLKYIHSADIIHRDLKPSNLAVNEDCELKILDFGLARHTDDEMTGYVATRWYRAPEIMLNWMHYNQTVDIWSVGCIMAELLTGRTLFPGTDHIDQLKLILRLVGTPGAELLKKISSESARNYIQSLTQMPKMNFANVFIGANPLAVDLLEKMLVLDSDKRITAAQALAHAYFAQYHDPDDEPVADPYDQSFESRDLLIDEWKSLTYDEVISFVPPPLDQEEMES

Row | SMILES | IC50 [1] [nM] | IC50 (p38MAPKγ (MAPK12)) [nM] | MTT Assay Cell viability at time point in d-U937 Cells (d-U937 cells; 4 h) | MTT Assay Cell viability at time point in d-U937 Cells (d-U937 cells; 24 h) | IC50 (GSK 3α enzyme isoform) [nM] | IC50 [2] [nM]
1 | CC(C)(C)c1cc(NC(=O)Nc2ccc(Oc3ccnc(Nc4ccccc4)n3)c3ccccc23)n(-c2ccc(O)cc2)n1 [Example 3, 1-(3-(tert-butyl)-1-(4-hydroxyphenyl)-1H-pyrazol-5-yl)-3-(4-((2-(phenylamino)pyrimidin-4-yl)oxy)naphthalen-1-yl)urea] | 4.1 | 1500 | −ve (−ve and +ve indicate the value is below and above respectively, the no significant effect threshold defined as 30% inhibition at 1 μg/mL at the time point indicated) | −ve (−ve and +ve indicate the value is below and above respectively, the no significant effect threshold defined as 30% inhibition at 1 μg/mL at the time point indicated) | 2490 | 173
2 | Cc1ccc(-n2nc(C(C)(C)C)cc2NC(=O)Nc2ccc(Oc3ccnc(Nc4cccc(C)c4)n3)c3ccccc23)cc1 [Example 12, 1-(3-(tert-butyl)-1-(p-tolyl)-lH-pyrazol-5-yl)-3-(4-((2-(m-tolylamino)pyrimidin-4-yl)oxy)naphthalen-1-yl)urea] | 2.7 | > 16700 | −ve (−ve and +ve indicate the value is below and above respectively, the no significant effect threshold defined as 30% inhibition at 1 μg/mL at the time point indicated) | −ve (−ve and +ve indicate the value is below and above respectively, the no significant effect threshold defined as 30% inhibition at 1 μg/mL at the time point indicated) | > 16700 | 169
3 | COc1cccc(Nc2nccc(Oc3ccc(NC(=O)Nc4cc(C(C)(C)C)nn4-c4ccc(C)cc4)c4ccccc34)n2)c1 [Example 14, 1-(3-(tert-butyl)-1-(p-tolyl)-1H-pyrazol-5-yl)-3-(4-((2-((3-methoxyphenyl)amino)pyrimidin-4-yl)oxy)naphthalen-1-yl)urea] | 9.8 | > 16300 | −ve (−ve and +ve indicate the value is below and above respectively, the no significant effect threshold defined as 30% inhibition at 1 μg/mL at the time point indicated) | −ve (−ve and +ve indicate the value is below and above respectively, the no significant effect threshold defined as 30% inhibition at 1 μg/mL at the time point indicated) | > 16300 | 119
4 | Cc1ccc(-n2nc(C(C)(C)C)cc2NC(=O)Nc2ccc(Oc3ccnc(Nc4ccccc4C)n3)c3ccccc23)cc1 [Example 21, 1-(3-(tert-butyl)-1-(p-tolyl)-1H-pyrazol-5-yl)-3-(4-((2-(o-tolylamino)pyrimidin-4-yl)oxy)naphthalen-1-yl)urea] | 36 | > 1670 | −ve (−ve and +ve indicate the value is below and above respectively, the no significant effect threshold defined as 30% inhibition at 1 μg/mL at the time point indicated) | −ve (−ve and +ve indicate the value is below and above respectively, the no significant effect threshold defined as 30% inhibition at 1 μg/mL at the time point indicated) | > 1670 | 33
5 | Cc1ccc(-n2nc(C(C)(C)C)cc2NC(=O)Nc2ccc(Oc3ccnc(Nc4ccccc4F)n3)c3ccccc23)cc1 [Example 4, 1-(3-(tert-butyl)-1-(p-tolyl)-1H-pyrazol-5-yl)-3-(4-((2-((2-fluorophenyl)amino)pyrimidin-4-yl)oxy)naphthalen-1-yl)urea] | 144 | 8200 | −ve (−ve and +ve indicate the value is below and above respectively, the no significant effect threshold defined as 30% inhibition at 1 μg/mL at the time point indicated) | −ve (−ve and +ve indicate the value is below and above respectively, the no significant effect threshold defined as 30% inhibition at 1 μg/mL at the time point indicated) | > 16600 | 165
6 | Cc1ccc(-n2nc(C(C)(C)C)cc2NC(=O)Nc2ccc(Oc3ccnc(Nc4cccc(Cl)c4)n3)c3ccccc23)cc1 [Example 13, 1-(3-(tert-butyl)-1-(p-tolyl)-1H-pyrazol-5-yl)-3-(4-((2-((3-chlorophenyl)amino)pyrimidin-4-yl)oxy)naphthalen-1-yl)urea] | 3 | > 16200 | −ve (−ve and +ve indicate the value is below and above respectively, the no significant effect threshold defined as 30% inhibition at 1 μg/mL at the time point indicated) | −ve (−ve and +ve indicate the value is below and above respectively, the no significant effect threshold defined as 30% inhibition at 1 μg/mL at the time point indicated) | > 16200 | 262
7 | Cc1ccc(Nc2nccc(Oc3ccc(NC(=O)Nc4cc(C(C)(C)C)nn4-c4ccc(C)cc4)c4ccccc34)n2)cc1 [Example 11, 1-(3-(tert-butyl)-1-(p-tolyl)-1H-pyrazol-5-yl)-3-(4-((2-(p-tolylamino)pyrimidin-4-yl)oxy)naphthalen-1-yl)urea] | 11 | > 16700 | −ve (−ve and +ve indicate the value is below and above respectively, the no significant effect threshold defined as 30% inhibition at 1 μg/mL at the time point indicated) | −ve (−ve and +ve indicate the value is below and above respectively, the no significant effect threshold defined as 30% inhibition at 1 μg/mL at the time point indicated) | > 16700 | 356
